Results on 12 compounds are retold here after publication PMC5368959, “Uricosuric targets of tranilast” (Pharmacology Research & Perspectives, 2017).

Structures are written as SMILES. Read-outs that look alike come from different tables or passages of the source.

Common to all, as to type: cell-based
The target in experiment [1] is T1, URAT1 (Homo sapiens, UniProt Q96S37).
T1 sequence (Q96S37 1-553): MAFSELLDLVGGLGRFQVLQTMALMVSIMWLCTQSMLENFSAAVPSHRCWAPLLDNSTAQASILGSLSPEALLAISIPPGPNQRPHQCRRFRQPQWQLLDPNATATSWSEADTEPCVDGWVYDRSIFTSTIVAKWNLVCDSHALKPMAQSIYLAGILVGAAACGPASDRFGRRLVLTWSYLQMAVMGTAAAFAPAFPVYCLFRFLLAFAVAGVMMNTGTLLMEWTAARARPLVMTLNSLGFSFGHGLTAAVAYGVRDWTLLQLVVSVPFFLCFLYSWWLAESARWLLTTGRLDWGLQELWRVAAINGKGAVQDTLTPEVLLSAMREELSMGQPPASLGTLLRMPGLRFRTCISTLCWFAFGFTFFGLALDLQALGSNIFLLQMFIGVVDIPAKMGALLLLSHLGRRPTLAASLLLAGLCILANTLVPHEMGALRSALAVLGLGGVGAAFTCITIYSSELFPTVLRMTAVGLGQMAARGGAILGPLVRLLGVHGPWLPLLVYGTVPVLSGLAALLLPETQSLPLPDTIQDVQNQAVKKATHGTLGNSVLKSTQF
The experiment is described as follows: [14C]-urate uptake by URAT1-expressing Xenopus oocytes. An excerpt:
(§1) For uptake experiments, oocytes were washed four times with ND96 medium (pH 7.4) without pyruvate and gentamycin.

In experiment [2] the target is T2, OAT10 (Homo sapiens, UniProt Q9Y226). The experiment is described as follows: [14C]-urate uptake by OAT10-expressing Xenopus oocytes. The following applies: preloaded 50 nL of 100 mmol/L.
T2 sequence (Q9Y226 whole entry): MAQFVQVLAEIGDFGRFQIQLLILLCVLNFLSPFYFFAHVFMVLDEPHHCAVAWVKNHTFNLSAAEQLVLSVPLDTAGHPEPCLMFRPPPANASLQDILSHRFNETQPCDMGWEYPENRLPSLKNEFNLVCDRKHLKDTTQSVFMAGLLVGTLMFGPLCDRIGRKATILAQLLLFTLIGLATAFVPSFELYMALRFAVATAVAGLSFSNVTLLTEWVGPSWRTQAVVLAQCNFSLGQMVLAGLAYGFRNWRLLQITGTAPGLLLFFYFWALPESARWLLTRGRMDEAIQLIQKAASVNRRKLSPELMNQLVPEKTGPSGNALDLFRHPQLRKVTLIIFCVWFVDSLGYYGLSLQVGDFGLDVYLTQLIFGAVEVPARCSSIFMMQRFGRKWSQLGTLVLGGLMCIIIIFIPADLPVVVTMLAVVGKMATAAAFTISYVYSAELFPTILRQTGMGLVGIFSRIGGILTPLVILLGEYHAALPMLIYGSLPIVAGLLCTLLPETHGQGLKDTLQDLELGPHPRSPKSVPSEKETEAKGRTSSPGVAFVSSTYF
Excerpt: as §1
(A) Time course of [^14C]‐urate uptake by control and […] oocytes. […] Inset, western blot analysis of OAT10 protein expressed in oocytes. […] (C) [^14C]‐urate transport properties of OAT10: voltage sensitivity and Na+‐dependence was examined by replacing extracellular NaCl by KCl or LiCl. Existence of urate/Cl^− exchange mechanism or Cl^− dependence or cis‐inhibitory effects of extracellular Cl^− on was verified by [^14C]‐urate uptake via OAT10 in the absence of extracellular Cl^− ion (0 Cl^−). In 0 Cl^− bath, NaCl was replaced by Na‐gluconate (Na‐Gluc), KCl by K‐gluconate (K‐Gluc), MgCl2 by Mg‐gluconate, and CaCl2 by Ca‐gluconate. […] Data are mean ± S.E. with n = 12–15.

Another experiment addresses T3, OAT3 (Mus musculus, UniProt O88909).
T3 sequence (O88909 1-537): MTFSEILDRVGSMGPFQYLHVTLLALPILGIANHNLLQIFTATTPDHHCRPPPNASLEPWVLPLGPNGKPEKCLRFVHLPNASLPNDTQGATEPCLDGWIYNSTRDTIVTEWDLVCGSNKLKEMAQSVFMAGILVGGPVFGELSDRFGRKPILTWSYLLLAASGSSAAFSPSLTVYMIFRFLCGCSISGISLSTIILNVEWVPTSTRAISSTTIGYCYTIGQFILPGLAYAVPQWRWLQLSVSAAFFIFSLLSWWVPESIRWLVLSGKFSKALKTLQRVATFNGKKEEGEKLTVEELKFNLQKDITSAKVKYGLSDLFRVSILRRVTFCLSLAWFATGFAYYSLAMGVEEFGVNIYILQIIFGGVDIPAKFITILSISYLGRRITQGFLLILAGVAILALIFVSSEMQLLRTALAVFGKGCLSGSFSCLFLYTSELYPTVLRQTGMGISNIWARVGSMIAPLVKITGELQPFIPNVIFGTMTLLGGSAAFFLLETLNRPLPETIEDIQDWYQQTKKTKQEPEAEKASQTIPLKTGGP
The experiment is described as follows: [14C]-urate uptake by OAT3-expressing Xenopus oocytes. The procedure: as §1
The uptake of [^14C]‐urate (40 μmol/L) was performed in ND96 medium (pH 7.4) at ~25°C for 1 h.

The target of experiment [3] is T1, URAT1. The experiment is described as follows: [14C]-nicotinate uptake by URAT1-expressing Xenopus oocytes. Conditions: for cis-inhibition of URAT1-mediated [14C]-nicotinate uptake by extracellular anion: data not shown.
Excerpt: as §1
Data are mean ± S.E. with n = 12–15.

The next experiment addresses T4, GLUT9a (Homo sapiens, UniProt Q9NRM0).
T4 sequence (Q9NRM0 1-540): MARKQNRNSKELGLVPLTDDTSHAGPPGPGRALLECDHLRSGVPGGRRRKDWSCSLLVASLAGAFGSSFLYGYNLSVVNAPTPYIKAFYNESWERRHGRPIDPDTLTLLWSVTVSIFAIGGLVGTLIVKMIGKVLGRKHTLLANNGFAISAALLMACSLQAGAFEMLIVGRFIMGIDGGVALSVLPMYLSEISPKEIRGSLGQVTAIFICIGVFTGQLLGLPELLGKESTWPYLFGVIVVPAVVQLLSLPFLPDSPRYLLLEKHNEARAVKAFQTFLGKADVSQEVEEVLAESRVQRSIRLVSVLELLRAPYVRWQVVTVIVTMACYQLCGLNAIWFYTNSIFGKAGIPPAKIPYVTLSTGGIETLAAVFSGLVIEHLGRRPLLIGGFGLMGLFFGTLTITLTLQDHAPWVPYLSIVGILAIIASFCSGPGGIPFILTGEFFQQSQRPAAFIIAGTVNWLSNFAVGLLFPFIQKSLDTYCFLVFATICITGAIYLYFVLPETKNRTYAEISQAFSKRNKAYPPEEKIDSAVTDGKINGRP
The experiment in a line: [14C]-urate uptake by GLUT9a-expressing Xenopus oocytes.
Excerpt: as §1
We sought to investigate the effect of tranilast on GLUT9a‐mediated [^14C]‐urate uptake in Xenopus laevis oocytes.

In experiment [4] the target is T2, OAT10. The experiment is described as follows: [14C]-nicotinate uptake by OAT10-expressing Xenopus oocytes. The following applies: preloaded with nonlabeled anion; ND96. The procedure: as §1
Chloride ion‐dependence was also assessed; in 0 Cl^− bath, NaCl was replaced by Na‐gluconate (Na‐Gluc), KCl by K‐gluconate (K‐Gluc), MgCl2 by Mg‐gluconate, and CaCl2 by Ca‐gluconate. […] Data are mean ± S.E. with n = 12–15.

The next experiment addresses T5, OAT4 (Homo sapiens, UniProt Q9NSA0).
T5 sequence (Q9NSA0 1-550): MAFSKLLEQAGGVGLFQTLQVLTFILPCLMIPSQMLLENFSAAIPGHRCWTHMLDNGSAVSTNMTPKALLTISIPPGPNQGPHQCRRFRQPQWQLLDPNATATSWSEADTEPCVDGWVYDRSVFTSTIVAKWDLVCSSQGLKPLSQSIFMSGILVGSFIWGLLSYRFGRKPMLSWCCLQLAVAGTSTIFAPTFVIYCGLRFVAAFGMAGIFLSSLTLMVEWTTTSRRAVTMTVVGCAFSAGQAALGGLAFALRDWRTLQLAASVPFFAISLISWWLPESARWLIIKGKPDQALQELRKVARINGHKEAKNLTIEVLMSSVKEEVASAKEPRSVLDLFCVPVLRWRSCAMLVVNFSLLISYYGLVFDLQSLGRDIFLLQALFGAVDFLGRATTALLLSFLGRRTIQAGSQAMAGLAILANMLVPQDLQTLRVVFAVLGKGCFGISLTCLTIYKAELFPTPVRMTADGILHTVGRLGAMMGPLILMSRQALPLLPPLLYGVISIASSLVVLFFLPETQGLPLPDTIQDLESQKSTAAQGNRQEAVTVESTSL
The experiment in a line: [14C]-urate uptake by OAT4-expressing Xenopus oocytes. The following applies: for trans-stimulatory effect of preloaded anion on OAT4-mediated urate uptake: preinjected 50 nL of 100 mmol/L; for cis-inhibition of OAT4-mediated, maleate trans-stimulated urate uptake: 10 mM extracellular anion. The procedure:
as §1
(A) The uptake of [^14C]‐urate by OAT4‐expressing oocytes was performed in ND96 medium (pH 7.4) at ~25°C for 1 h. Na^+‐dependence was examined by replacing extracellular NaCl by KCl. […] (B) The inhibition of [^14C]‐urate uptake by OAT4 was examined in the presence of extracellular organic anions (for cis‐inhibition) or uricosuric drugs at the indicated concentrations. […] Data are mean ± S.E. with n = 12–15.

Turning to `CC(O)CC(=O)O` (stereo not drawn) [BHB, β‐hydroxy butyrate], on URAT1 [1], the “trans-stimulatory effect of preloaded intracellular anion on URAT1-mediated urate uptake” value was “did not however detect any significant trans‐stimulatory effect”. Also, the “cis-inhibition of URAT1-mediated urate uptake by extracellular organic anion” value (“cis-inhibition … by extracellular organic anion” for short) on URAT1 [1] (10 mM extracellular anion) is listed as “not cis‐inhibited”. Further, the “trans-stimulatory effect of preloaded anion on OAT10-mediated urate uptake” value at OAT10 [2] is listed as “modest trans‐stimulatory effect”.
On to `Nc1ccc(C(=O)NCC(=O)O)cc1` [PAH, para‐aminohippurate], for which the “trans-stimulatory effect of preloaded intracellular anion on URAT1-mediated urate uptake” value on URAT1 [1] is recorded as “did not however detect any significant trans‐stimulatory effect”. Also, the “cis-inhibition … by extracellular organic anion” value at URAT1 [1] (10 mM extracellular anion) is “not cis‐inhibited”.
Turning to `O=C(O)c1cnccn1` [PZA, pyrazine carboxylate], at OAT3 (10 mmol/L extracellular anion), the “cis-inhibition of OAT3-mediated urate uptake by extracellular anion” value was “almost completely cis‐inhibited”. Moreover, the “Effect of preloaded intracellular anion on OAT3 [14C]-urate uptake (trans-stimulation)” value at OAT3 (preloaded anion) was “did not have any effect”. Further, the “cis-inhibition … by extracellular organic anion” value on URAT1 [1] (10 mM extracellular anion) is “cis‐inhibition”. On URAT1 [1] (oocytes preloaded with nonlabeled anion), the “URAT1 urate uptake after preloading with anion (trans-stimulation), fold over preloaded control oocytes” value is on record as 70–75 fold. Moreover, the “cis-inhibition of URAT1-mediated [14C]-nicotinate uptake by extracellular anion” value on URAT1 [3] was “cis‐inhibited”. Further, the “URAT1 [14C]-nicotinate uptake after preloading (trans-stimulation), fold over water-injected control oocytes” value on URAT1 [3] (preloaded anion) was 19–20 fold. The “Effect of extracellular anion on GLUT9a activity” value at GLUT9a (Fig. 2C) was “no effect”. The “trans-stimulatory effect of preloaded anion on OAT10-mediated urate uptake” value at OAT10 [2] is listed as “modest trans‐stimulatory effect”. Moreover, the “OAT10 [14C]-nicotinate uptake after preloading, fold over PZA-preloaded control oocytes” value at OAT10 [4] is reported as 118–120 fold. Also, the “trans-stimulatory effect of preloaded anion on OAT4-mediated urate uptake” value at OAT4 was “no significant effects”.
On to `O=C(O)CC(O)(CC(=O)O)C(=O)O` [citrate], for which the “cis-inhibition … by extracellular organic anion” value on URAT1 [1] (10 mM extracellular anion) is “not cis‐inhibited”.
Consider `O=CO` [formate], for which the “cis-inhibition … by extracellular organic anion” value at URAT1 [1] is listed as “not cis‐inhibited”.
`CC(O)C(=O)O` (stereo not shown) [lactate]: the “trans-stimulatory effect of preloaded intracellular anion on URAT1-mediated urate uptake” value at URAT1 [1] was “did not however detect any significant trans‐stimulatory effect”. Moreover, the “cis-inhibition … by extracellular organic anion” value on URAT1 [1] (10 mM extracellular anion) is “not cis‐inhibited”.
Turning to `O=C(O)/C=C\C(=O)O` [maleate], the “cis-inhibition … by extracellular organic anion” value on URAT1 [1] (10 mM extracellular anion) is given as “not cis‐inhibited”. At OAT4, the “cis-inhibition of OAT4-mediated, maleate trans-stimulated urate uptake” value is listed as “efficiently cis‐inhibited” and the “trans-stimulatory effect of preloaded anion on OAT4-mediated urate uptake” value was “modest trans‐stimulatory effect”.
As for `O=C(O)C(=O)O` [oxalate], the “cis-inhibition … by extracellular organic anion” value at URAT1 [1] (10 mM extracellular anion) is listed as “not cis‐inhibited”.
With `CC(=O)C(=O)O` [pyruvate], the “cis-inhibition … by extracellular organic anion” value at URAT1 [1] (10 mM extracellular anion) was “not cis‐inhibited”.
Take `O=C(O)c1ccccc1O` [salicylate]: the “cis-inhibition … by extracellular organic anion” value on URAT1 [1] is listed as “cis‐inhibition”. On URAT1 [3], the “cis-inhibition of URAT1-mediated [14C]-nicotinate uptake by extracellular anion” value is given as “cis‐inhibited”. The “Effect of extracellular anion on GLUT9a activity” value on GLUT9a is on record as “no effect”.
`O=C(O)CCC(=O)O` [succinate]: on URAT1 [1], the “cis-inhibition … by extracellular organic anion” value is “not cis‐inhibited”. Further, on OAT4, the “cis-inhibition of OAT4-mediated, maleate trans-stimulated urate uptake” value is listed as “much less cis‐inhibition” and the “trans-stimulatory effect of preloaded anion on OAT4-mediated urate uptake” value is listed as “no significant effects”.
Consider `O=c1[nH]c(=O)c2[nH]c(=O)[nH]c2[nH]1` [urate], for which the “cis-inhibition of URAT1-mediated [14C]-nicotinate uptake by extracellular anion” value on URAT1 [3] was “cis‐inhibited”.
